Assay results reported in patent US8592603B2, “Synthesis of 2-(4-aminophenyl) benzothiazole derivatives and use thereof” (Kaohsiung Medical University, priority 2011, dated 2013).

What was measured:
BCC cells = experiment: Sub-G1 region analysis (PI, flow cytometry); format: cell-based, human; conditions: 4 μM for 4 hours, 1 J/cm^2 UVA, 24 h after irradiation
Method: BCC cells were treated with compounds at 4 μM and 1 J/cm^2 UVA. Twenty-four hours after irradiation, cells were harvested by trypsinization and centrifugation. Cell pellets were resuspended in 50% cold ethanol and fixed at −20° C. After fixation, cells were washed once with cold PBS and incubated in 0.5 mL of PBS containing 100 μg/mL RNase A for 20 min at 37° C. Cells were harvested by centrifugation at 400 g for 5 min, and 250 μL of PBS containing 50 μg/mL propidium iodide (PI) was added to the pellet. Thirty minutes later, the DNA contents of 10,000 events were measured by FACSscan flow cytometer (Elite ESP, Beckman Coulter, Brea, Calif.). Histograms were analyzed using Windows Multiple Document Interface software (WinMDI). Cells with DNA content less than that in untreated cells in G0/G1 were considered apoptotic. To investigate the effects of compounds 6 on cell cycle progression of BCC cells, the DNA content of cell nuclei was measured by flow cytometric analysis. […] BCC cells were treated with 4 μM agents for 4 hours followed by 1 J/cm^2 UVA irradiation. Twenty-four hours after irradiation, the PI reagent was used. Approximately 10000 cells from each group were analyzed with the FACScan flow cytometer. The apoptotic effects in 2.2% (control), 6.5% (6a), 13.4% (6b), 29.2% (6c), 24.4% (6d), 6.5% (6e), 35.4% (6f), 13.6% (6g), 13.8% (6h), 14.8% (6i) and 6.4% (6j) of sub-G1 DNA peak were obtained (% represented the percentage of cell counts).

[1] = test system: human dermal fibroblast cells; experiment: Morphology observation and annexin V/PI binding assay on normal cells; format: cell-based; conditions: 4 μM for 4 h, 1 J/cm2 UVA (FIG. 4C)
Method: (A) The increased enzymatic activities of the caspase-3 in apoptotic were determined by colorimetric reaction. The cleavage of peptide by the caspase releases the chromophore pNA (p-nitroaniline), which can be quantified spectrophotometrically at a wavelength of 405 nm. (B) Dot plots for BCC cells treated with various concentrations of 6f-UVA and then stained with PI and an annexin V-FITC conjugate specifically detecting the exposure of PS residues at the cell surface. (C) Morphological observation and annexin V/PI double stain were used for the detection of fibroblasts apoptosis. Approximately 10000 cells from each group were analyzed by flow cytometry. Data shown are of a representative experiment repeated three times with similar results. ** p<0.01 as compared with the control.
To assess the simultaneous observation of early phase of apoptotic and necrotic features, BCC cells were treated with various concentrations (0-4 μM) of Formula 6f for 4 h before irradiation. Twenty-four hours after irradiation, cells were harvested by trypsinization and centrifugation and measured by cytometry by adding annexin V-FITC to […] per sample according to the manufacturer's specifications (Bender MedSystems, Vienna, Austria). Simultaneously, the cells were stained with PI. Flow cytometry data were analyzed by the WinMDI software.
BCC or fibroblasts (5×10^5 cells/well) seeded on 6 well plate. […]

p38 = experiment: Western blot analysis of MAPK phosphorylation: p38; format: cell-based, human; conditions: BCC cells, 6f-UVA at 4 μM, compared with untreated control (FIG. 6A)
Method: (A) After exposure to different concentration of 6f-UVA, cell lysates were collected and immunoblotted with specific antibodies as indicated. For the internal control, the same amounts of protein extract were also probed with antibody against actin. (B) As a control, the expression level of p-ERK was determined in the presence of oligomycin (25 μM) and ATP (1×10^−4M)
Total cell extracts from cultured BCC cells were obtained by lysing the cells in ice-cold RIPA buffer (1×PBS, 1% NP-40, 0.5% sodium deoxycholate, 0.1% SDS) containing 100 μg/mL PMSF, 2 μg/mL aprotinin, 2 μg/mL leupeptin and 100 μg/mL NaF. After centrifugation at 14,000 g for 30 min, protein in the supernatants was quantified by Bradford method (Bio-Rad). Forty micrograms of protein per lane was applied in 10% SDS-poly-acrylamide gel. After electrophoresis, protein was transferred from the gel to polyvinylidene difluoride (PVDF) membrane (Millipore, Bedford, Mass.). The membranes were blocked at room temperature for 1 h in PBS+0.1% Tween 20 (PBS-T) containing 5% skim milk. After being briefly rinsed with PBS-T, the blots were probed with respective primary antibodies at room temperature for 2 h or at 4° C. overnight. […] The relative amounts of specific proteins were quantified by densitometry scanning of X-ray films and analyzed by Eagle Eye Image System (Stratagene, La Jolla, Calif.)

melting point: 181 to 183 °C
Structure (SMILES): Nc1ccc(-c2nc3ccc(C(F)(F)F)cc3s2)cc1 [Formula 6f, 2-(4-Aminophenyl)-6-trifluoromethylbenzothiazole]
sub-G1 DNA peak (apoptotic effects, percentage of cell counts) (BCC cells): 35.4% | apoptotic activity on normal cells [1]: no significant apoptotic effect | phosphorylation of p38 (p-p38) (p38): increased
